Converted amounts (≈) assume the structure as drawn. Read-outs that look alike come from different tables or passages of the source.
Tests used:
[1] = LD50 when intravenously injected in male mice; type: in vivo
Excerpt: The growth-promoting agent of the present invention not only promotes the growth of animals, but also improves feed utilization efficiency. The agent is also effective for the treatment of bacterial diseases.

[2] = Growth promoting effect on chicks, 20 ppm in feed for 10 days (Table 2); type: in vivo; conditions: for Body weight gain, mean value ± standard error: chicks 8 to 18 days of age, 20 ppm in feed × 10 days; for Feed efficiency: chicks, no antibiotic group 1.70; for Body weight gain index: no antibiotic group = 100.0
Description: Growth promoting effect of PA-42867-A on chicks (8 days of age, Abaeker species) was determined using a known antibiotic, Thiopeptin, as a control. PA-42867-A and Thiopeptin were added to an antibiotic-free feed mash (crude protein content (CP): 18%) at a concentration of 20 ppm, and the chicks were raised for 10 days with the resulting feed according to the battery method. Specifically describing the method of experiment, newly hatched chicks were fed until 8 days of age with a feed ration of 23% CP by the flat feeding method, at which time the chicks were divided into three groups each containing 25-26 chicks (males and females, 12-13 chicks each) so that the average weights of the chicks in all groups were nearly the same. PA-42867-A group received 20 ppm of the antibiotic a day for 10 days, Thiopeptin group received 20 ppm for 10 days, and the control group received antibiotic-free feed of 18% CP for 10 days. The above feeding was conducted after dividing the chicks in each of these groups into sub-groups of 6-7 chicks and putting each sub-group in a cage (435×600×410 mm). The feeding was conducted for 10 days (until 18 days of age) at an environmental temperature of 26°±2°C. The effectiveness of the drug was evaluated based on the body weight gain and the feed efficiency observed during the 10 days period of the experiment.

[3] = Growth promoting effect on chicks, 20 ppm in feed for 13 days (Table 3); type: in vivo; conditions: for Feed efficiency, 10 days / Feed efficiency, 13 days / Body weight gain ± standard error, 13 days / Body weight gain ± standard error, 10 days: 20 ppm in feed; for Feed efficiency, 10 days / Body weight gain comparative index, 10 days: 10th day; for Feed efficiency, 10 days: no antibiotic group 1.69; for Feed efficiency, 13 days / Body weight gain comparative index, 13 days: 13th day; for Feed efficiency, 13 days: no antibiotic group 1.76; for Body weight gain ± standard error, 13 days: chicks 8-21 days of age, measured on the 13th day; for Body weight gain ± standard error, 10 days: chicks from 8 days of age, measured on the 10th day; for Body weight gain comparative index, 10 days / Body weight gain comparative index, 13 days: weight gain of the control group regarded as 100
Description: In the same manner, another growth promoting tests were conducted on des-(4-epi-vancosaminyl)PA-42867-A and des-(4-epi-vancosaminyl-0-glucosyl)PA-42867-A by giving 20 ppm of the test drug to chicks of 8-21 days of age for 13 days, using Thiopeptin as a control.
The newly hatched chicks were fed until eight days of age with a feed mash (crude protein content (CP):23%) without addition of any antibiotic by means of the flat feeding. Then, the chicks were divided into four groups each containing 24 chicks (males and females, 12 each). Each group was placed in four cages after dividing into four unisexual sub-groups, each consisting of 6-7 chicks, and raised for 13 days with an animal feed of CP 18% with or without antibiotics. Thus, each of four groups received 20 ppm of des-(4-epi-vancosaminyl)PA-42867-A, 20 ppm of des(4-epi-vancosaminyl-0-glucosyl)PA-42867-A, 20 ppm of Thiopeptin, and no antibiotic, respectively.
Body weight gain and feed efficiency were measured on the 10th and the 13th day.

Cl. perfringens = type: cell-based, Clostridium perfringens; conditions: GAM agar, 24 hours at 37° C.

Compound	LD50 [1] [mg/kg]	Feed efficiency compared with the group raised with antibiotic-free feed (in words) ([2]; 20 ppm × 10 days)	Body weight gain, mean value ± standard error [2] [g]	Feed efficiency, 10 days [3]	Feed efficiency, 13 days [3]	Body weight gain ± standard error, 13 days [3] [g]	Body weight gain ± standard error, 10 days [3] [g]	Body weight gain comparative index, 10 days [3]	Body weight gain comparative index, 13 days [3]	MIC (Cl. perfringens; strain 3C-01, origin chicken) [µg/mL]	MIC (Cl. perfringens; strain 6B-10, origin cow) [µg/mL]	MIC (Cl. perfringens; strain 9C-02, origin chicken) [µg/mL]	MIC (Cl. perfringens; strain 02441, origin chicken) [µg/mL]	MIC (Cl. perfringens; strain CW-1970, origin cow) [µg/mL]	MIC (Cl. perfringens; strain FC 2208/75, origin cow) [µg/mL]	MIC (Cl. perfringens; strain NCTC-8239, origin cow) [µg/mL]	MIC (Cl. perfringens; strain NCTC-8798, origin cow) [µg/mL]	MIC (Cl. perfringens; strain NCTC-10239, origin cow) [µg/mL]	MIC (Cl. perfringens; strain S-79, origin cow) [µg/mL]	MIC (Cl. perfringens; strain SP07, origin chicken) [µg/mL]	also measured
CNC(CC(C)C)C(=O)NC1C(=O)NC(CC(N)=O)C(=O)NC2C(=O)NC3C(=O)NC(C(=O)NC(C(=O)O)c4cc(O)cc(O)c4-c4cc3ccc4O)C(OC3CC(C)(N)C(O)C(C)O3)c3ccc(c(Cl)c3)Oc3cc2cc(c3OC2OC(CO)C(O)C(O)C2OC2CC(C)(N)C(O)C(C)O2)Oc2ccc(cc2)C1O (stereo not drawn) [Compound 1, PA-42867-A]	1955	better results in feed efficiency	332.0 ± 6.71	1.54	1.66	442.6 ± 7.8	328.9 ± 6.3	105.4	103.9	0.39 (≈ 0.25 µM)	0.2 (≈ 0.128 µM)	0.2 (≈ 0.128 µM)	0.39 (≈ 0.25 µM)	0.39 (≈ 0.25 µM)	0.39 (≈ 0.25 µM)	0.39 (≈ 0.25 µM)	0.39 (≈ 0.25 µM)	0.39 (≈ 0.25 µM)	0.39 (≈ 0.25 µM)	0.39 (≈ 0.25 µM)	Body weight gain compared with the no-antibiotic control group and the Thiopeptin group (in words) ([2]; 20 ppm × 10 days, p<0.01): significantly high body weight gain; Feed efficiency ([2]; 20 ppm × 10 days): 1.53; Body weight gain index ([2]; 20 ppm × 10 days): 110.0
CNC(CC(C)C)C(=O)NC1C(=O)NC(CC(N)=O)C(=O)NC2C(=O)NC3C(=O)NC(C(=O)NC(C(=O)O)c4cc(O)cc(O)c4-c4cc3ccc4O)C(OC3CC(C)(N)C(O)C(C)O3)c3ccc(c(Cl)c3)Oc3cc2cc(c3OC2OC(CO)C(O)C(O)C2O)Oc2ccc(cc2)C1O (stereo not drawn) [Compound 2, des-(4-epi-vancosaminyl) PA-42867-A]	> 3000			1.62	1.66	447.4 ± 11.5	324.6 ± 8.3	104.0	105.0	1.56 (≈ 1.1 µM)	1.56 (≈ 1.1 µM)	1.56 (≈ 1.1 µM)	1.56 (≈ 1.1 µM)	1.56 (≈ 1.1 µM)	1.56 (≈ 1.1 µM)	1.56 (≈ 1.1 µM)	1.56 (≈ 1.1 µM)	1.56 (≈ 1.1 µM)	0.78 (≈ 0.551 µM)	1.56 (≈ 1.1 µM)	
CNC(CC(C)C)C(=O)NC1C(=O)NC(CC(N)=O)C(=O)NC2C(=O)NC3C(=O)NC(C(=O)NC(C(=O)O)c4cc(O)cc(O)c4-c4cc3ccc4O)C(OC3CC(C)(N)C(O)C(C)O3)c3ccc(c(Cl)c3)Oc3cc2cc(c3O)Oc2ccc(cc2)C1O (stereo not drawn) [Compound 3, des-(4-epi-vancosaminyl-0-glucosyl)PA-42867-A]	205									0.78 (≈ 0.623 µM)	0.78 (≈ 0.623 µM)	0.78 (≈ 0.623 µM)	0.78 (≈ 0.623 µM)	0.78 (≈ 0.623 µM)	0.78 (≈ 0.623 µM)	0.78 (≈ 0.623 µM)	0.78 (≈ 0.623 µM)	0.78 (≈ 0.623 µM)	0.39 (≈ 0.311 µM)	0.78 (≈ 0.623 µM)	
Thiopeptin [reference compound]		better results in feed efficiency	313.7 ± 8.80	1.61	1.70	445.5 ± 11.1	319.5 ± 7.5	102.4	104.6												Feed efficiency ([2]; 20 ppm × 10 days): 1.58; Body weight gain index ([2]; 20 ppm × 10 days): 103.9
